Measurements published in US20250269036A1, “METHODS FOR ENHANCEMENT OF ENGINEERED CELL THERAPIES IN CANCER TREATMENT” (PURDUE RESEARCH FOUNDATION, priority 2021, published 2025).
“Also recorded” adds a separate entry of the source.

Assays:
[1] = system: healthy mice; experiment: Plasma cytokine levels in healthy mice after tail vein injection; type: in vivo; conditions: healthy mice, tail vein, 10 nmol, 1 hour or 1.5 hours after treatment
Description: (FIGS. 20A-C) Measurement of plasma IL-6 (FIG. 20A), IFNα (FIG. 20B) and TNFα (FIG. 20C) (n=3). (FIGS. 20D-F). The effect of drug concentration on plasma levels of IL-6 (FIG. 20D), IFNα (FIG. 20E), and TNFα (FIG. 20F) was determined at 1.5h, 1h, or 1h after treatment, respectively (n=2) (FIG. 20G).
(FIGS. 36C and 36D). The effect of drug on plasma levels of IL-6 (FIG. 36C) and TNFα (FIG. 36D) was determined at 1 hour or 1.5 hours after treatment.

[2] = system: IL-4, IL-6 plus IL-13 stimulated THP-1 cells (M2-like macrophages); experiment: Reprogramming of M2-polarized THP-1 macrophages, marker mRNA by qPCR; type: cell-based, human; conditions: 2 hours; for CCL18 relative expression / CD206 relative expression / IL-1β relative expression: different nM concentrations, qPCR
Description: THP-1 cells were initially selected as a model system because this human monocytic cell line is known to acquire an M2-like phenotype and produce significant quantities of anti-inflammatory cytokines upon stimulation with IL-4, IL-6 plus IL-13.
THP-1 cells were seeded into 96-well plates at a density of 60,000 cells/well. Cells were differentiated into unpolarized macrophages by 48 hours incubation with 200 nM PMA followed by 24 hours incubation in fresh RPMI medium. […] Cultures were maintained at 37° C. in a humidified 5% CO2 incubator.
Total RNA was isolated from 1×10^5-2×10^5 macrophages using a Quick-RNATM MicroPrep kit (Zymo Research, Irvine, CA) according to the manufacturer-recommended protocol. […] IL-6, CXCL10, IFNα, IFN-γ and CD86 were used as markers for an M1 phenotype, while CCL18, CD206, CD163 and Arg1 were employed as markers for the M2 phenotype. IL-1β, PDGFβ, MMP9 and TIMP 3 were measured as indicators of an anti-inflammatory phenotype. IRAK-4 was used as an indicator of TLR7 stimulation. To control for specificity of the amplification products, a melting curve analysis was performed. […] Each sample was analyzed independently in triplicate for each marker.
Primarily, human monocytic (THP-1) cells were induced to the M2-like phenotype using the methods and materials previously described. In particular, THP-1 cells were seeded into 96-well plates at a density of 60,000 cells/well. Cells were differentiated into unpolarized macrophages by 48h incubation with 200 nM PMA followed by 24 hours incubation in fresh RPMI medium. The resulting macrophages were polarized to an M2-like phenotype by incubation with 20 ng/ml IL-4, 20 ng/ml IL-13, and 5 ng/mL IL-6 for 48h. Cultures were maintained at 37° C. in a humidified 5% CO2 incubator.
In addition to the nonconjugated TLR7 agonist, conjugated compounds of the present disclosure were likewise evaluated. […] The cells were subsequently harvested for gene analysis by qPCR and the relative expression of CCL18 (FIG. 14A), CD206 (FIG. 14B), and IL-1β (FIG. 14C) analyzed.

[3] = system: M2-induced THP-1 macrophages; experiment: Secreted CCL18 and IL-1β in THP-1 macrophage supernatants by ELISA; type: cell-based, human; conditions: ELISA, low concentration range (0.1-10 nM)
Description: FIGS. 6A-6D show graphical data representative of various marker levels measured from M2-induced THP-1 macrophages treated with different concentrations of drugs for 48 hours (FIGS. 6A and 6B) or for 2 hours, then displaced with fresh medium and cultured for the remaining 46 hours (FIGS. 6C and 6D). In both cases, cell supernatants were collected and secreted CCL18 protein and IL-1β was detected by ELISA.
CCL18 and IL-1β were quantified in induced THP-1 cell supernatants using a human DuoSet ELISA Development System (R&D Systems Europe, Abingdon, UK; #DY394-05) and an IL-1 beta Human ELISA Kit (Thermo Fisher Scientific, Waltham, MA; #BMS224-2) as described by manufactures. BALF samples were analyzed for mouse IFN-γ using ELISA MAX™ Deluxe (Biolegend, San Diego, CA; #430804).

[4] = system: FRβ-expressing macrophages; experiment: In vivo folate imaging of organs with OTL38; design: species or system C57BL/6 mice
Description: (§1) To evaluate if anti-inflammatory lung macrophages in these mice can be specifically targeted with folate-linked drugs, 10 days after the instillation, 10 nmol (for in vivo imaging) or 100 nmol (for in vivo labeling) of a folate-linked, near infrared fluorescent dye (OTL38) with or without 200-fold excess of FA-glucosamine (a competitor of OTL38) was injected into the tail veins of BM-treated mice and the dye uptake in the major organs was evaluated.
Finally, for the in vivo folate imaging studies, major organs (heart, lung, spleen, liver, small intestine, large intestine, and kidney) were resected and imaged using an AMI live imager (Spectral Instruments Imaging, Tucson, AZ). For in vivo folate receptor labeling studies, lungs of the mice were harvested immediately following euthanasia, digested with a lung dissociation kit (Miltenyi Biotec, Bergisch Gladbach, DE; #130-098-427) as described by gentleMACS Octo Dissociator with Heathers (Miltenyi Biotec, Bergisch Gladbach, DE; #130-096-427) as described by manual and filtered through a 70 μm cell strainer (Miltenyi Biotec, Bergisch Gladbach, DE; #130-098-462). Cells collected in the filtrate were depleted of erythrocytes by […] lysis, washed 2x in cold PBS and labeled for 30 min on ice with antibodies to desired macrophage markers (FITC-CD11b, Biolegend, San Diego, CA; #101205; FE-F4/80, Biolegend, San Diego, CA; #123109). Labeled macrophages were then washed twice in PBS, stained with 7AAD (viability stain) for 15 min and analyzed by flow cytometry using BD Accuri C6 Software (BD Biosciences, San Jose, CA).
FIGS. 7C and 7D show FRβ IHC staining of human IPF lung tissue (FIG. 7C) and healthy human lung tissue (FIG. 7D). […] After 2 hours, mice were sacrificed prior to analysis. […] For in vivo folate receptor labeling studies, lungs of the mice were harvested immediately following euthanasia, digested and then labeled with antibodies to desired macrophages markers (FITC-CD11b, PE-F4/80) and 7AAD (live/dead staining) and analyzed by flow cytometry.

[5] = system: FRβ positive macrophages in the inflamed lung; experiment: In vivo folate receptor labeling of lung macrophages, flow cytometry; design: species or system C57BL/6 mice
Description: as §1
Finally, for the in vivo folate imaging studies, major organs (heart, lung, spleen, liver, small intestine, large intestine, and kidney) were resected and imaged using an AMI live imager (Spectral Instruments Imaging, Tucson, AZ). […] Labeled macrophages were then washed twice in PBS, stained with 7AAD (viability stain) for 15 min and analyzed by flow cytometry using BD Accuri C6 Software (BD Biosciences, San Jose, CA).
FIGS. 7C and 7D show FRβ IHC staining of human IPF lung tissue (FIG. 7C) and healthy human lung tissue (FIG. 7D). […] For in vivo folate receptor labeling studies, lungs of the mice were harvested immediately following euthanasia, digested and then labeled with antibodies to desired macrophages markers (FITC-CD11b, PE-F4/80) and 7AAD (live/dead staining) and analyzed by flow cytometry. […]

Compound | CCL18 relative expression [2] | CD206 relative expression [2] | IL-1β relative expression [2] | secretion of CCL18 protein [3] | other results
CCOCc1nc2c(N)nc3ccccc3c2n1CC(C)(C)O [Compound A, reference compound] |  |  |  |  | systemic cytokine release (plasma IL-6, TNFα) [1]: stimulated systemic cytokine release
Nc1nc2ncc(CNc3ccc(C(=O)N[C@@H](CCC(=O)NCCOCCOCCOCCOCC4CCCN(CCNc5ccc(Cn6c(=O)[nH]c7c(N)nc(C(F)(F)F)cc76)cn5)C4)C(=O)O)cc3)nc2c(=O)[nH]1 (stereo partly shown) [Compound 3D] | reduced | reduced | reduced | downregulated | effectiveness in reducing M2 markers relative to the other compounds ([2]; CCL18, CD206, IL-1β): most effective
Nc1nc(C(F)(F)F)cc2c1[nH]c(=O)n2Cc1ccc(NCCN2CCCC(CO)C2)nc1 (stereo not shown) [Compound 3A] |  |  |  | downregulated | 
OTL38 |  |  |  |  | lung accumulation with competitor ([4]; BM-treated mice, simultaneous 200-fold excess folate-glucosamine): nearly quantitative blockade of lung accumulation; OTL38 fluorescence in organs of healthy mice ([4]; tail vein, 10 nmol, 2 hours): only observed in the kidneys; accumulation in lungs of BM-treated mice ([4]; tail vein, 10 nmol, day 10 post BM, 2 hours): in the lungs of BM-treated but not healthy mice; also recorded: pronounced accumulation in the fibrotic lungs; folate-dye retention in macrophage-like cells with competitor ([5]; 100 nmol plus 200-fold excess folate-glucosamine): blocked essentially all folate-dye retention; macrophage-like cells showing folate-targeted dye retention ([5]; fibrotic mice, 100 nmol, tail vein): about 22%
Nc1nc2ncc(CNc3ccc(C(=O)NC(CCC(=O)N[C@@H](CSSCCOC(=O)OCC4CCCN(CCNc5ccc(Cn6c(=O)[nH]c7c(N)nc(C(F)(F)F)cc76)cn5)C4)C(=O)O)C(=O)O)cc3)nc2c(=O)[nH]1 (stereo partly shown) [Compound 3B] | reduced | reduced | reduced | downregulated | 
